Non-standard residues stand in square brackets, D forms with d. Residues, ends and D or L forms follow the SMILES beside them. sY = N[C@@H](Cc1ccc(OS(=O)(=O)O)cc1)C(=O)O; pGlu = O=C1CC[C@@H](C(=O)O)N1
Columns and labels:
Aplysia californica = test: Feeding behavior (food intake) in intact animals after peptide injection; assay type: in vivo; details: for Behavioral effect (food intake), summary grade: Table S1 summary in words; for Food intake (seaweed consumed in a single meal): food-deprived animals
Source text: To explore the role of apCCKs as satiety signals in mollusks, we examined their effects on food intake. […] The remaining four forms had no impact (Figure S9). Moreover, [sY6, sY8]-apCCK1 slowed food consumption (Figure 2E), which could stem, in part, from a shift from ingestive to egestive patterns as the meal progressed. [sY6, sY8]-apCCK1 also extended the duration to consume one strip of seaweed compared to controls (Figure 2F), further mimicking natural satiety.
Behavioral experiments were conducted in two batches, each using animals from separate shipments. In the first batch (Figure 2), animals were larger, with an average body weight of 93.3 ± 4.8 g, and were food-deprived for 7 days prior to testing. In the second batch (Figure S9), animals were smaller (average weight: 70.6 ± 4.0 g) and were food-deprived for 5 days to account for their reduced size. In each experiment, two weight-matched animals were housed in separate round net cages (17 cm diameter and 17 cm height) that were placed in a 500 L tank filled with circulating aerated ASW (14°C–16°C). To ensure that the animals were responsive to food, they were first pretested with a small piece of seaweed. After this pretest, in each pair, one animal was injected (into the hemocoel using a syringe needle) with apCCKs freshly dissolved in 1.5 mL ASW, whereas the other was injected with 1.5 mL of ASW. Three minutes later, the feeding session commenced. Animals were hand-fed seaweed (Shirako, Tokyo, Japan) cut in 1 × 10 cm strips, weighing ~0.1 g, increasing 10-fold when hydrated. This hand-feeding approach has been used in prior study of Aplysia feeding behavior.[146],[147] The consumed seaweed amount was converted to hydrated weight and normalized to the animal’s body weight. Each strip of seaweed was delivered to the mouth area with forceps. Feeding was terminated after 1 h or when animals stopped ingesting seaweed for 3 min.

[1] = test system: CBI-2-elicited feeding motor programs; test: CBI-2-elicited feeding motor programs in isolated cerebral and buccal ganglia; set-up: species or system Aplysia californica; details: for B8 activity (frequency) during retraction: 10^-6 M and 10^-5 M; for Feeding program effect, summary grade: Table S1 summary in words
Protocol: To explore the neural basis of the behavioral effects of apCCKs, we examined their modulation of feeding-motor programs in isolated ganglia. All eight forms of apCCKs were tested on programs induced by CBI-2, a command-like interneuron that is active during food-elicited feeding behavior[56] and provides potent excitatory inputs to buccal central pattern generator (CPG) interneurons,[54],[77] orchestrating ingestive motor programs (Figure S23A). Stable single-cycle motor programs were evoked by stimulating CBI-2 at 8–10 Hz throughout the protraction phase with a 90-s intertrial interval. Two concentrations, 10^−6 M and 10^−5 M, of apCCKs were tested.
(§1) Intracellular and extracellular recordings were made as described previously.[57]–[59],[61],[151] To prevent movements of ganglia caused by myoactive apCCK (especially [sY8]-apCCK1 and [sY6, sY8]-apCCK1) during bath application, we treated the ganglia with 0.8% protease IX for 1–2 min prior to desheathing. Subsequently, ganglia were desheathed, transferred to a recording chamber containing ~1.5 mL of ASW (460 mM NaCl, 10 mM KCl, 11mM CaCl2, 55 mM MgCl2, and 10 mM HEPES, pH 7.6), continuously perfused at 0.3 mL/min, and maintained at 14°C–17°C. The experiments examining the effects of apCCKs on excitability of B20/B34/B61/62/B65/B64 neurons were performed in a high divalent saline (368 mM NaCl, 8 mM KCl, 13.8 mM CaCl2, 115 mM MgCl2, and 10 mM HEPES, pH 7.6), which increases the spiking threshold of neurons and therefore curtails polysynaptic influences. Intracellular recordings were obtained using 5–10 MΩ sharp microelectrodes filled with an electrolyte (0.6 M K2SO4 plus 60 mM KCl). Extracellular recordings were acquired from polyethylene suction electrodes. Grass S88 and WPI Pulsemaster A300 stimulators were used to provide timing signals for intracellular and extracellular stimulation. To determine the effects of various forms of apCCKs on Aplysia feeding programs, we performed experiments with the cerebral and buccal ganglia. Freshly made apCCK solution in ASW was perfused into the recording chamber. Feeding-motor programs were elicited by stimulation of command-like neuron CBI-2 at 8–10 Hz or stimulation of the EN at 2 Hz, 3 ms, 15 V, and were monitored by bursting activity of the I2 nerve of the buccal ganglion.[58],[59],[61] Typically, we recorded from motor neuron B8, and one interneuron, e.g., B40 or B20. To determine effects of apCCKs on synaptic strength, we stimulated presynaptic neuron, CBI-2, B34 (plus 1 nA current) or B65 at 10 Hz for 2 s for several trials and waited 1 min between each trial. The stimulation duration for each trial was set at 2 s because this allows the expression of synaptic facilitation without evoking too many spikes. Typically, the amplitude of the last EPSP at each concentration of peptides was quantified unless otherwise stated.

[2] = test system: EN-elicited feeding motor programs; test: EN-elicited egestive motor programs in isolated ganglia; set-up: species or system Aplysia californica; details: EN stimulation at 2 Hz
Source text: Although protraction (B61/62) activity is inhibited by apCCKs during CBI-2-elicited programs, this might not be the case for the egestive motor programs elicited by EN stimulation, which could contribute positively to satiety. We therefore examined [sY8]-apCCK1 effects on B61/62 activity in EN-elicited egestive motor programs. […] This difference may be explained in part by effects on the interneuron B65, which is strongly active during EN programs but not during CBI-2 programs,[56],[81]–[83] whereas the opposite is true for B34.[54],[61] B65 elicits fast excitatory postsynaptic potentials (EPSPs) in B61/62.[81] [sY8]-apCCK1 increased B65 excitability (Figures 6M and 6N) and EPSPs from B65 to B61/62 (Figures 6O and 6P), which could account for the increase of B61/62 activity during EN programs.
Intracellular and extracellular recordings were made as described previously.[57]–[59],[61],[151] […] Feeding-motor programs were elicited by stimulation of command-like neuron CBI-2 at 8–10 Hz or stimulation of the EN at 2 Hz, 3 ms, 15 V, and were monitored by bursting activity of the I2 nerve of the buccal ganglion.[58],[59],[61] Typically, we recorded from motor neuron B8, and one interneuron, e.g., B40 or B20. […] Typically, the amplitude of the last EPSP at each concentration of peptides was quantified unless otherwise stated.

[3] = test system: B20, B40, B64, B34, B61/62, B65 neurons and CBI-2 synapses; test: Electrophysiology: excitability and synaptic strength of identified feeding-circuit neurons; set-up: species or system Aplysia californica
Source text: To characterize apCCK mechanisms of action, we investigated their effects on synaptic and intrinsic plasticity of key circuit elements. […] However, [sY8]-apCCK1 decreased synaptic strength between CBI-2 and B40 (Figures S26C and S26D).
as §1

[4] = injection into hemocoel of apCCK solutions (10^-7 M or 10^-6 M) vs ASW
[5] = presynaptic stimulation 10 Hz for 2 s, last EPSP

Structure (SMILES): CC(C)C[C@H](NC(=O)CNC(=O)[C@H](Cc1ccc(OS(=O)(=O)O)cc1)NC(=O)[C@H](CC(=O)O)NC(=O)[C@H](Cc1ccc(OS(=O)(=O)O)cc1)NC(=O)[C@H](CO)NC(=O)[C@H](Cc1c[nH]c2ccccc12)NC(=O)[C@H](C)NC(=O)CNC(=O)[C@@H]1CCC(=O)N1)C(=O)NCC(=O)NCC(=O)NCC(=O)N[C@@H](CCCNC(=N)N)C(=O)N[C@@H](Cc1ccccc1)C(N)=O [[sY6, sY8]-apCCK1] ([pGlu]GAWS[sY]D[sY]GLGGGRF-NH2)
- Behavioral effect (food intake), summary grade (Aplysia californica): Strong
- Time to consume one strip of seaweed (average of the first three strips) (Aplysia californica; injected with 10^-8 M, compared with control animals): took longer
- Food intake (seaweed consumed in a single meal) (Aplysia californica; [4]): strongly reduced food intake
- Protraction duration of CBI-2 programs ([1]; 10^-6 M and 10^-5 M tested): shortened
- B8 activity (frequency) during retraction ([1]; CBI-2 programs): reduced
- Feeding program effect, summary grade [1]: Strong

Structure (SMILES): CC(C)C[C@H](NC(=O)CNC(=O)[C@H](Cc1ccc(O)cc1)NC(=O)[C@H](CC(=O)O)NC(=O)[C@H](Cc1ccc(OS(=O)(=O)O)cc1)NC(=O)[C@H](CO)NC(=O)[C@H](Cc1c[nH]c2ccccc12)NC(=O)[C@H](C)NC(=O)CNC(=O)[C@@H]1CCC(=O)N1)C(=O)NCC(=O)NCC(=O)NCC(=O)N[C@@H](CCCNC(=N)N)C(=O)N[C@@H](Cc1ccccc1)C(N)=O [[sY6]-apCCK1] ([pGlu]GAWS[sY]DYGLGGGRF-NH2)
- Behavioral effect (food intake), summary grade (Aplysia californica): No effect
- Food intake (seaweed consumed in a single meal) (Aplysia californica; [4]): did not influence feeding
- Feeding program effect, summary grade [1]: No effect

Structure (SMILES): CC(C)C[C@H](NC(=O)CNC(=O)[C@H](Cc1ccc(OS(=O)(=O)O)cc1)NC(=O)[C@H](CC(=O)O)NC(=O)[C@H](Cc1ccc(O)cc1)NC(=O)[C@H](CO)NC(=O)[C@H](Cc1c[nH]c2ccccc12)NC(=O)[C@H](C)NC(=O)CNC(=O)[C@@H]1CCC(=O)N1)C(=O)NCC(=O)NCC(=O)NCC(=O)N[C@@H](CCCNC(=N)N)C(=O)N[C@@H](Cc1ccccc1)C(N)=O [[sY8]-apCCK1] ([pGlu]GAWSYD[sY]GLGGGRF-NH2)
- Behavioral effect (food intake), summary grade (Aplysia californica): Strongest
- Food intake (seaweed consumed in a single meal) (Aplysia californica; injection into hemocoel, 10^-8 M or 10^-7 M): completely inhibiting consumption
- B20 firing frequency in CBI-2 programs ([1]; 10^-6 M): increased
- Type of CBI-2-elicited motor program ([1]; 10^-6 M): shifted ingestive programs to egestive
- B34 frequency in CBI-2 programs ([1]; 10^-6 M and 10^-5 M tested): decreased
- B40 firing frequency in CBI-2 programs ([1]; 10^-6 M and 10^-5 M tested): decreased
- B61/62 frequency in CBI-2 programs ([1]; 10^-6 M and 10^-5 M tested): decreased
- Protraction duration of CBI-2 programs ([1]; 10^-6 M and 10^-5 M tested): shortened
- Retraction duration of CBI-2 programs ([1]; 10^-6 M and 10^-5 M tested): shortened
- B8 activity during protraction ([1]; CBI-2 programs, 10^-5 M): decreased
- B8 activity during protraction ([1]; CBI-2 programs, 10^-6 M): significantly increased
- B8 activity (frequency) during retraction ([1]; CBI-2 programs): significantly decreased
- Firing frequency of the I2 nerve ([1]; CBI-2 programs, 10^-6 M and 10^-5 M tested): significantly decreased
- Feeding program effect, summary grade [1]: Strongest
- B61/62 firing frequency in EN-elicited programs [2]: increased
- B40 excitability [3]: enhanced
- Synaptic strength between CBI-2 and B40 [3]: decreased
- B20 excitability ([3]; 10^-6 M, high divalent saline): significantly enhanced
- EPSPs from B65 to B61/62 ([3]; first EPSP of each stimulation trial): increased
- B34 excitability ([3]; high divalent saline): enhanced
- B61/62 excitability ([3]; high divalent saline): enhanced
- B64 excitability ([3]; high divalent saline): enhanced
- B65 excitability ([3]; high divalent saline): increased
- B20 excitability ([3]; higher concentration (10^-5 M), high divalent saline): no significant effect
- Synaptic strength between B34 and B61/62 [3, 5]: decreased
- Synaptic strength between CBI-2 and B34 [3, 5]: decreased
- Synaptic strength between CBI-2 and B61/62 [3, 5]: decreased

Structure (SMILES): CC(C)C[C@H](NC(=O)CNC(=O)[C@H](Cc1ccc(O)cc1)NC(=O)[C@H](CC(=O)O)NC(=O)[C@H](Cc1ccc(O)cc1)NC(=O)[C@H](CO)NC(=O)[C@H](Cc1c[nH]c2ccccc12)NC(=O)[C@H](C)NC(=O)CNC(=O)[C@@H]1CCC(=O)N1)C(=O)NCC(=O)NCC(=O)NCC(=O)N[C@@H](CCCNC(=N)N)C(=O)N[C@@H](Cc1ccccc1)C(N)=O [apCCK1] ([pGlu]GAWSYDYGLGGGRF-NH2)
- Behavioral effect (food intake), summary grade (Aplysia californica): No effect
- Food intake (seaweed consumed in a single meal) (Aplysia californica; [4]): did not influence feeding
- Feeding program effect, summary grade [1]: No effect

From article PMC12535377, “Synaptic and intrinsic plasticity mediated by CCK-type signaling coordinates behavioral changes during motivational state shifts” (Cell reports, 2025)
